{"source": "patent US20230293711A1", "about": "“DISRUPTION OF CD28-SIALOSIDE LIGAND COMPLEXES TO ENHANCE T CELL ACTIVATION” (THE SCRIPPS RESEARCH INSTITUTE, priority 2020, published 2023)", "molecules": {"B1": {"name": "anti-human PD-1 monoclonal antibody clone 1H3 (antibody, V domains shown)", "VH": "EVQLVESGGGLVKPGGSLKLSCAASGFTFSDYGMHWVRQAPEKGLEWVAYISSGSYTIYYTDTVKGRFTISRDNAKNTLFLQMTSLRSEDTAMYYCARRGYGSFYEYYFDYWGQGTTLTVSS", "VL": "QIVLTQSPALMSASPGEKVTMTCSASSSVSYMYWYQQKPRSSPKPWIYLTSNLASGVPARFSGSGSGTSYSLTISSMEAEDAATYYCQQWSSNPFTFGSGTKLEIK"}, "B2": {"name": "anti-mouse PD-1 monoclonal antibody clone J43 (antibody, from another filing, V domains shown)", "VH": "EVRLLESGGGLVKPEGSLKLSCVASGFTFSDYFMSWVRQAPGKGLEWVAHIYTKSYNYATYYSGSVKGRFTISRDDSRSMVYLQMNNLRTEDTATYYCTRDGSGYPSLDFWGQGTQVTVSS", "VL": "YELTQPPSASVNVGETVKITCSGDQLPKYFADWFHQRSDQTILQVIYDDNKRPSGIPERISGSSSGTTATLTIRDVRAEDEGDYYCFSGYVDSDSKLYVFGSGTQLTVLG"}, "B3": {"name": "recombinant chimeric mouse CD28 fused to human Fc (Fc fusion, UniProt P31041 20-150, looked up)", "chain": "NKILVKQSPLLVVDSNEVSLSCRYSYNLLAKEFRASLYKGVNSDVEVCVGNGNFTYQPQFRSNAEFNCDGDFDNETVTFRLWNLHVNHTDIYFCKIEFMYPPPYLDNERSNGTIIHIKEKHLCHTQSSPKL", "notes": "Commercial Fc chimera; also called CD28-Fc; not shown: human Fc"}}, "key": {"[1]": {"target": "chimeric PD-1 fused to green fluorescent protein, expressed on Jurkat T cells", "test": "cell-based or functional assay"}, "[2]": {"target": "T1, mouse PD-1 (mPD1) (Mus musculus, UniProt Q02242)", "T1 sequence (Q02242 25-288)": "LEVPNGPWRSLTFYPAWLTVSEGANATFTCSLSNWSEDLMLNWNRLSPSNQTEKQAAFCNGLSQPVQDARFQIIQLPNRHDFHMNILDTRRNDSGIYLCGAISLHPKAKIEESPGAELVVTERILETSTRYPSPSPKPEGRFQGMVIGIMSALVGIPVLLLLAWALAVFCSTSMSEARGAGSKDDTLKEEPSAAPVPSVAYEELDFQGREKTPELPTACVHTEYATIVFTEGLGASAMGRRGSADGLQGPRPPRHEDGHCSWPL", "test": "Binding of expressed anti-PD-1 monoclonal antibodies and conjugate to mouse PD-1 (ELISA)", "conditions": "anti-hPD1 clones", "text": "FIG. 11. Three expressed anti PD-1 monoclonal antibodies targeted respectively to either human PD-1 (hPD1) and mouse PD-1 (mPD1) bind with high specificity and affinity.\n(§1) We investigated the possibility of using non-specific small-molecule linkers to install multiple reactive sites on three expressed αPD1 monoclonal antibodies. […] Through an inverse Electron Demand Diels Alder (iEDDA) reaction, two molecules conjugated respectively with tetrazine and TCO moieties can react rapidly and covalently under ambient conditions. Utilizing the methodology and reagents shown in the reaction scheme in FIG. 12A, we incubated αPD1 antibody clones with NHS-tetrazine 1, allowing non-selective labeling of solvent-exposed lysine residue side-chains (FIG. 12A). Simultaneously, we modified an expressed sialidase from Salmonella typhimurium (ST) containing a C-terminal cysteine though incubation with a 40-fold molar excess of TCO-maleimide 2, leading to near-complete selective modification of the free thiol group (FIG. 12A). To optimize conjugation yield, leading to maximum utilization of antibody starting material while also producing defined products with small numbers of ST per antibody, we titrated the molar ratio of NHS-tetrazine used to load the antibody with reactive groups in step one of the conjugation reaction (FIG. 12B). […]"}, "[3]": {"test": "Sialidase activity of purified αPD1-S against MUNANA", "type": "biochemical", "conditions": "1 activity unit=1 μmol min-1; purified single- and double-modified αPD1-S", "method": "as §1"}, "[4]": {"system": "OT-I cells (CD8^+ T cells)", "test": "OT-I proliferation (CTV dilution) in co-culture with OVA-loaded DCs with or without sialidase"}, "[5]": {"system": "DCs (expressing CD80)", "test": "Binding of recombinant CD28-Fc to sialidase-treated DCs (flow cytometry)", "type": "cell-based, mouse"}, "[6]": {"system": "Polyclonal CD8^+ T cells exhausted via chronic LCMV infection", "type": "cell-based, mice"}, "[7]": {"system": "exhausted P14 cells", "type": "cell-based, mouse"}, "[8]": {"system": "T cells (CD4^+ and CD8^+) from murine spleen (expressing CD28)", "test": "Binding of recombinant CD80-Fc to sialidase-treated T cells (flow cytometry)", "type": "cell-based"}, "[9]": {"system": "OT-II cells", "test": "Adoptive transfer of ex vivo desialylated CTV-stained OT-II cells into OVA experienced host mice", "type": "in vivo", "conditions": "cells treated ex vivo 45 min at 37° C.; OVA sensitized mice; vs normally sialylated control", "method": "FIG. 8. Desialylated T cells are more readily activated in vivo. (A) WT mice were injected with OVA on day 1. On day 2, OT-II cells were treated with sialidase or PBS ex vivo for 45 min. at 37° C. and subsequently stained with CTV. These cells were then adoptively transferred into OVA experienced host mice (or naïve mice as a control). On day 5, spleens from host mice were analyzed for adoptively transferred OT-II cells and CTV dilution was evaluated. […] (C) Quantification of data from (B). […] Normalized division index corresponds to T cell division index for sialidase-treated cultures divided by the division index for the corresponding PBS treated control.\nTo investigate the translatability of these findings to an in vivo system, we adoptively transferred CTV-stained OT-II cells that were desialylated ex vivo into a WT host mouse. We observed that desialylated OT-II cells expanded more efficiently in vivo as compared to a normally sialylated control (FIG. 8)."}, "[10]": {"system": "OT-II cells (CD4^+ T cells)", "test": "OT-II proliferation (CTV dilution) in co-culture with OVA-loaded DCs with or without sialidase"}, "[11]": {"target": "human CD28 (Homo sapiens, UniProt P10747)", "sequence (P10747 19-220)": "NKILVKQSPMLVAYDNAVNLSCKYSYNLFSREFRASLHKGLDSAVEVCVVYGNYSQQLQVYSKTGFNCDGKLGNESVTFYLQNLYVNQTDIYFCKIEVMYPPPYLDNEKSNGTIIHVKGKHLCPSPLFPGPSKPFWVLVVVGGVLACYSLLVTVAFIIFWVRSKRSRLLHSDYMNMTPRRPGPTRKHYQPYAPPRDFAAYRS", "test": "Steady state SPR of soluble glycan binding to surface immobilized CD28", "text": "FIG. 5. Biophysical characterization of a CD28-sialoside interaction. Steady state SPR data for α2,3-Sialyl-triLacNAc and triLacNAc binding to surface immobilized human CD28.\nAs an orthogonal test for sialoside binding and to assess the affinity of a sialoside ligand, we tested the ability of surface-immobilized CD28 to bind to a soluble sialylated glycan using SPR."}, "[12]": {"system": "OT-II cells", "test": "APC-free expansion of OT-II cells with anti-CD3 and recombinant CD80 in the presence of soluble glycan", "type": "cell-based", "conditions": "soluble glycan 500 μM; anti-CD3 and recombinant CD80-Fc", "method": "FIG. 7. APC-free expansion of OT-II cells in the presence of soluble glycan (500 μM). (A) Experimental setup. T cells were activated using anti-CD3 (αCD3) and recombinant CD80 (rCD80). (B) OT-II cell proliferation histograms. (C) Quantification of data from (B).\nSince recombinant CD80 binding to CD28 was the sole source of co-stimulation for T cells in this experiment, we conclude that sialic acid ligands of CD28 functionally suppress CD28 mediated co-stimulation."}, "[13]": {"target": "T2, human PD-1 (human, UniProt Q15116 25-167, limits assumed)", "T2 construct": "also called hPD1", "T2 sequence (Q15116 25-167 limits assumed)": "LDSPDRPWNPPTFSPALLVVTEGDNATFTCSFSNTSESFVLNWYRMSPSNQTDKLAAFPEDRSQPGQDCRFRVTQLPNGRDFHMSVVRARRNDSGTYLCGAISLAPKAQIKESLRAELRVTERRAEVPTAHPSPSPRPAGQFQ", "test": "ELISA (FIG. 11)"}, "[14]": {"target": "mouse PD-1 (mouse) (UniProt Q02242)", "test": "ELISA (FIG. 11)"}, "[15]": {"target": "T3, CD80 on murine dendritic cells (mouse, UniProt Q00609 38-306)", "T3 construct": "whole, on cells; DCs (expressing CD80), untreated or treated with V. cholerae sialidase; also called B7-1", "T3 sequence": "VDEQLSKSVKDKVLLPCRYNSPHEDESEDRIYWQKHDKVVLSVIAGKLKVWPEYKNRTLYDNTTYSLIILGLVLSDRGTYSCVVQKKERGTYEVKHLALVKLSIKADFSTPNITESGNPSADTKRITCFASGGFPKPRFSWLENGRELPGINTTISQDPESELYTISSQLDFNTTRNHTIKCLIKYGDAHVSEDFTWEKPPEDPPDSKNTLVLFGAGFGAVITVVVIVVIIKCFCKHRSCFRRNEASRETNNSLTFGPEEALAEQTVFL", "test": "flow cytometry on DCs with or without sialidase"}, "[16]": {"conditions": "OVA-loaded bone marrow derived DCs, 3 days, vs PBS"}, "[17]": {"conditions": "bulk OVA-loaded splenocytes, DCs differentiated using Flt3L"}}}
{"molecule": "αhPD1-S (409A11), conjugate of anti-human PD-1 clone 409A11 and Salmonella typhimurium sialidase (from UniProt P29768 2-382)", "values": [{"measurement": "desialylation of Jurkat-PD1-GFP against Jurkat T cells (lectin staining SNA, PNA, MAA-II, flow cytometry)", "setting": "[1]", "result": "> 100", "unit": "fold"}, {"measurement": "fold decrease in level of αPD1-S needed for similar desialylation of Jurkat-PD1-GFP against native Jurkat cells", "setting": "[1]", "result": "100 to 1000", "unit": "fold"}]}
{"molecule": "Pembrolizumab [409A11]", "values": [{"measurement": "affinity for mPD1", "setting": "[2]", "result": "no affinity"}, {"measurement": "sialidase activity against MUNANA", "setting": "[3]", "result": 26, "unit": "U mL-1"}]}
{"molecule": "sialidase: free sialidase; from V. cholerae in FIG. 2 and 6, source not stated for the other experiments", "values": [{"measurement": "enhancement of CD8^+ T cell proliferation", "setting": "[4]; [16]", "result": "2-3 fold"}, {"measurement": "OT-I cell activation with alternative APC sources", "setting": "[4]; [17]", "result": "enhancement"}, {"measurement": "binding of recombinant CD28-Fc to desialylated DCs compared to untreated controls", "setting": "[5]", "result": "significant enhancement"}, {"measurement": "T cell activation (percentage of cells expressing IFN-γ and granzyme B) over peptide alone", "setting": "[6]", "result": "enhanced"}, {"measurement": "expression of LAMP-1 over peptide alone", "setting": "[6]", "result": "enhanced"}, {"measurement": "cytokine production (IFN-γ/TNF-α)", "setting": "[7]", "result": "enhanced"}, {"measurement": "binding of recombinant CD80-Fc to desialylated T cells compared to untreated controls", "setting": "[8]", "result": "significant enhancement"}, {"measurement": "proliferation of adoptively transferred OT-II cells in vivo", "setting": "[9]", "result": "enhanced proliferation"}, {"measurement": "enhancement of CD4^+ T cell proliferation", "setting": "[10]; [16]", "result": "2-3 fold"}, {"measurement": "OT-II cell activation with alternative APC sources", "setting": "[10]; [17]", "result": "enhancement"}]}
{"molecule": "α2,3-Sialyl-triLacNAc [soluble sialylated glycan]", "values": [{"measurement": "Kd", "setting": "[11]", "result": 112, "unit": "µM"}]}
{"molecule": "NeuAcα2-3Galβ1-4(Fucα1-3)GlcNAc [sialylated-Lewis X]", "values": [{"measurement": "T cell proliferation", "setting": "[12]", "result": "significant reduction"}]}
{"molecule": "B1", "values": [{"measurement": "EC50", "setting": "[13]", "result": 0.16, "unit": "µg/mL"}]}
{"molecule": "B2", "values": [{"measurement": "EC50", "setting": "[14]", "result": 0.39, "unit": "µg/mL"}]}
{"molecule": "B3", "values": [{"measurement": "binding result", "setting": "[15]", "result": "binds"}]}
